According to patent US20130165489A1, “Small Molecule Modulators of HIV-1 Capsid Stability and Methods Thereof” (The Trustees of the University of Pennsylvania, priority 2010, published 2013):

Legend:
[1] = test system: HIV-1 BCF02 (group O clinical isolate); assay: Anti-HIV efficacy in human PBMCs, isolate BCF02; type: cell-based
Procedure: HIV human peripheral blood mononuclear cell (PBMC) assays were performed as described previously (Lanier et al., 2010, Antimicrob. Agents Chemother. 54:2901-09; Ptak et al., 2008, Antimicrob. Agents Chemother. 52:1302-17). Briefly, fresh PBMCs, seronegative for HIV and hepatitis B virus (HBV), were isolated from blood samples of the screened donors (Biological Specialty Corporation, Colmar, Pa.) by using lymphocyte separation medium (LSM; density, 1.078±0.002 g/ml; Cellgro; Mediatech, Inc.) by following the manufacturer's instructions. Cells were stimulated by incubation in 4 μg/mL phytohemagglutinin (PHA; Sigma) for 48 to 72 h. Mitogenic stimulation was maintained by the addition of 20 U/mL recombinant human interleukin-2 (rhIL-2; R&D Systems, Inc.) to the culture medium. PHA-stimulated PBMCs from at least two donors were pooled, diluted in fresh medium, and added to 96-well plates at 5×10^4 cells/well. Cells were infected (final multiplicity of infection [MOI] of ≅0.1) in the presence of 9 different concentrations of test compounds (triplicate wells/concentration) and incubated for 7 days. […] Following removal of supernatant samples, compound cytotoxicity was measured by the addition of 3-(4,5-dimethylthiazol-2-yl)-5-(3-carboxymethoxyphenyl)-2-(4-sulfophenyl)-2H-tetrazolium (MTS; CellTiter 96 reagent; Promega) by following the manufacturer's instructions. […]

HIV-1NL4-3 CA = HIV-1NL4-3 CA (Human immunodeficiency virus type 1 group M subtype B, UniProt P12493); assay: Surface plasmon resonance direct binding to HIV-1 CA
Procedure: Interaction analyses were performed on a Biacore 3000 optical biosensor (Biacore, Piscataway Township, NJ) with simultaneous monitoring of two flow cells Immobilization of the CA protein to CM7 sensor chips was performed following the standard amine coupling procedure according to the manufacturer's specifications. Briefly, carboxyl groups on the sensor chip surface were activated by injection of 50 μL of a solution containing 0.2 M EDC (1-ethyl-3-[3-dimethylamino-propyl]carbodiimide hydrochloride) and 0.05 M NHS(N-hydroxysuccinimide) at a flow rate of 5 μL min^−1. Next, the 50 μL of CA protein at a concentration of 6 μM in pH 5.0, 10 mM sodium acetate buffer was passed over the chip surface at 25° C. at a flow rate of 5 μL min^−1 Then, after unreacted protein had been washed out, excess active ester groups on the sensor surface were capped by the injection of 50 μL of 1 M ethanolamine (pH 8.0) at a flow rate of 5 μL min^−1. A reference surface with the nonspecific anti-gp120 antibody 17b (Thali et al., 1993, J. Virol. 67:3978-88) immobilized was generated at the same time under the same conditions and was used as background to correct nonspecific binding and for instrument and buffer artifacts.
Stock solutions of CMPD-E and CMPD-F were prepared by dissolving the compounds in 100% dimethyl sulfoxide (DMSO) to a final concentration of 10 mM. To prepare the sample for analysis, 30 μL of the compound stock solution was added to sample preparation buffer (25 mM Tris-HCl, 150 mM NaCl, pH 7.5) to a final volume of 1 mL and mixed thoroughly. Preparation of analyte in this manner ensured that the concentration of DMSO was matched with that of running buffer with 3% DMSO. Lower concentrations of each compound were then prepared by twofold serial dilutions into running buffer (25 mM Tris-HCl, 150 mM NaCl, 3% DMSO, pH 7.5). These compound dilutions were then injected over the control and CA surfaces at a flow rate of 50 μL min^−1, for a 2-min association phase, followed by a 5-min dissociation phase. […]

mutant HIV-1 CA proteins = assay: Binding site analysis via SPR, mutant CA proteins; settings: alanine mutants of residues 137 and R173, 27.5 μM
Procedure: Wild-type and mutant HIV-1 CA proteins were attached to the surface by standard amine chemistry as described above. Compound CMPD-E was injected over these surfaces at a concentration of 27.5 μM at a flow rate of 50 μL min^−1, for a 2-min association phase, followed by a 5-min dissociation phase, and the response at equilibrium recorded. For comparison, and to take into account minor differences in the ligand density of the mutant surfaces, responses were normalized to the theoretical Rmax, assuming a 2:1 interaction.
Data analysis was performed using BIAEvaluation 4.0 software. The responses of a buffer injection and responses from the reference flow cell were subtracted to account for nonspecific binding. In order to obtain the equilibrium dissociation constants (KD), experimental data were fitted globally to the heterogeneous ligand model. The average parameters generated from a minimum of 4 data sets were used to define the equilibrium dissociation constants (KD1 and KD2). In the mutant CA protein studies, the average maximum response was generated from a minimum of 6 data sets and was used to define the average maximum response for compound CMPD-E binding to wild-type and mutant HIV-1 CA proteins.

JEV = assay: CPE assay, JEV; type: cell-based, Japanese encephalitis virus

## O=C(O)c1ccc(-c2nc(-c3ccccc3)c(-c3ccccc3)[nH]2)cc1 [CMPD-E, 4-(4,5-diphenyl-1H-imidazol-2-yl)benzoic acid]
[1]; Human immunodeficiency virus 1, PBMC
  IC50: 71.3 µM
[1]; PBMC
  Antiviral index (TC50/IC50): >1.4
HIV-1NL4-3 CA
  Kd: 66.3 ± 4.8 µM
HIV-1NL4-3 CA; SPR
  interaction with sensor-chip immobilized HIV-1 CA: directly interacted
Mutant HIV-1 CA proteins
  reduction of binding to mutant CA compared to wild-type CA: > 2 fold
JEV
  effect on Japanese encephalitis virus replication: no inhibitory effects
JEV; Japanese encephalitis virus
  IC50: > 100 µM
